Broadly, the melting point is the temperature of the solid-liquid transition.

The structures appear in SMILES notation.

The values below come from a melting point compilation (Tetko et al.; mined from patent text by program, amines drawn as free bases though some values may be those of a salt).

The compound `Nc1cc(Cl)cc(Nc2ncnc3[nH]cc(C(=O)c4ccccc4)c23)c1` returned a melting point greater than 300 °C.
The figure for `COc1ccc2c(c1)CN(C#N)CC2c1cc(OC)c(OC)c(OC)c1` (stereo not given) is 113 to 116 °C; for `COC(=O)c1sc(C)c(O)c1O` it is 116 to 117 °C; for `Cc1cnc(CCNC(=O)c2ccccc2NC(=O)c2cccc(C(F)(F)F)c2)[nH]1` it is 168 to 172 °C.
On to `COCOc1ccc(-c2ncc3ccc(-c4csc(CN5CCN(C)CC5)c4)nc3n2)cc1`, for which the melting point was greater than 268 °C.
As for `COc1cc2ncnc(Nc3ccc(OCc4ccccn4)c(C)c3)c2cc1OCCN(C)C`, the melting point was in the range of 125 to 126 °C.
Take `Cc1c(-c2ccccc2)[nH]c(=O)n1C1CCN(Cc2cccc(Cl)c2)CC1`: the melting point lay in the range of 248 to 249 °C.
`O=C1CCC(O)=C1Cc1ccc2ccccc2c1`: the melting point fell in the range of 230 to 231 °C.
The compound `COC1(C)CCc2cc(O)c(C(C)(C)C)cc2O1` (stereo not given) yielded a melting point of 115 to 117 °C.
As for `CC(C)(C)c1cc(C(O)c2ccccc2)cc(C(C)(C)C)c1O` (stereo not given), the melting point lay in the range of 117 to 119 °C.
In turn, `COc1cc(C(=O)C#CC(=O)O)cc(OC)c1OC` showed a melting point of 130 to 132 °C.
Take `N#Cc1cncc(-c2ccc3c(c2)C2(CCCCC2)C(=O)N3)c1`: the melting point lay in the range of 232 to 234 °C.
With `Cc1ccc2cccc(OCc3c(Cl)ccc(S(=O)(=O)NCc4ccccc4)c3Cl)c2n1`, the melting point fell in the range of 140 to 142 °C.
Next, `CN(c1cc(OCCO)cc2cc(C3=NCC(CN4CCSCC4)S3)[nH]c12)S(=O)(=O)c1ccccn1` (stereo not given): 160 to 162 °C; `CC(Cl)C(=O)N1c2ccccc2C(=O)Nc2cccnc21` (stereo not given): 215 to 218 °C.
Compound `O=C(c1ccc(F)cc1)N1CCC[C@H](c2noc(-c3ccc(F)cc3)n2)C1` displayed a melting point of 120 to 123 °C.
Consider `CCCc1nnc2n1-c1ccc(Cl)cc1C(c1ccccc1)=NC2`, for which the melting point was 176 °C.
In the case of `O=C1C(=Cc2cccnc2)N2CCC1CC2`, the melting point turned out to be 113 °C.
In turn, `CC(C)(C)c1nc(-c2ncn3c2COc2cc(F)ccc2-3)no1` had a melting point of 133 to 135 °C.
For `CCCOC(=O)C1=C(C)NC(C)=C(C(=O)N[C@H](C(=O)OCC)C(C)C)[C@@H]1c1cccc([N+](=O)[O-])c1`, the melting point lay within 119 to 121 °C.
Consider `COc1ccc(C(OC(C)=O)c2cc(OCc3ccccc3)ccc2OC)nc1` (stereo not given), for which the melting point lay within 105 to 110 °C.
Turning to `CC(=O)OC(c1nc2c(C(F)(F)F)cccc2c(O)c1C(=O)Nc1ccccn1)C(C)C` (stereo not given), the melting point came to 230 °C.
Next, `O=C(O)C1CCc2[nH]c3cc(Cl)c(Cl)cc3c2C1` (stereo not given): 243 to 244 °C.
With `CC(=O)Nc1cc2c(s1)CCCN(CCCCN1CCN(c3ncccn3)CC1)C2=O`, the melting point lay within 158 to 161 °C.
`Cc1cccc(Cl)c1NC(=S)Nc1c(C)nn(C)c1C`: the melting point lay within 201 to 202 °C.
Compound `CNc1cc(C)cc([N+](=O)[O-])c1N` had a melting point of 113 °C.
In the case of `COc1nc(NC(=O)NS(=O)(=O)c2ccccc2S(=O)(=O)N2CCC2)nc(OC)n1`, the melting point was 175 to 177 °C.
As for `CC1=C(OS(=O)(=O)c2ccc(C)cc2)C(=O)C(C)O1` (stereo not given), the melting point was 70 to 72 °C.
For `N#CCc1coc2ccc(Br)cc12`, the melting point is 120 °C.
With `CNc1c([N+](=O)[O-])c(Br)nn1Cc1ccccc1`, the melting point stood at 116 °C.
Compound `COCC1CCCN1S(=O)(=O)c1ccc2c(c1)C1(OCCCO1)C1=NCCCN12` (stereo not given) displayed a melting point of 129 to 130 °C.
Turning to `COC(=O)c1ccc([N+](=O)[O-])cc1S(=O)(=O)N(C)C`, the melting point is 93 to 96 °C.
`C=C(C)c1c(OC)cc(Cc2cnc(N)nc2N)cc1OC` registered a melting point of 228 to 229 °C.
Consider `C[C@@H](n1ccn(-c2ccc(-n3ccnn3)cc2)c1=O)[C@](O)(Cn1cncn1)c1ccc(F)cc1F`, for which the melting point lay within 178 to 181 °C.
In turn, `NC(=O)[C@H]1CN(c2ccc(I)c(F)c2)C(=O)O1` had a melting point of 176 to 178 °C.
